{"source": "patent US9493430B2", "about": "“Biaryl- or heterocyclic biaryl-substituted cyclohexene derivative compounds as CETP inhibitors” (CHONG KUN DANG PHARMACEUTICAL CORP., priority 2013, dated 2016)", "molecular_target": "CETP (Homo sapiens (Human), UniProt P11597)", "sequence (P11597 18-493)": "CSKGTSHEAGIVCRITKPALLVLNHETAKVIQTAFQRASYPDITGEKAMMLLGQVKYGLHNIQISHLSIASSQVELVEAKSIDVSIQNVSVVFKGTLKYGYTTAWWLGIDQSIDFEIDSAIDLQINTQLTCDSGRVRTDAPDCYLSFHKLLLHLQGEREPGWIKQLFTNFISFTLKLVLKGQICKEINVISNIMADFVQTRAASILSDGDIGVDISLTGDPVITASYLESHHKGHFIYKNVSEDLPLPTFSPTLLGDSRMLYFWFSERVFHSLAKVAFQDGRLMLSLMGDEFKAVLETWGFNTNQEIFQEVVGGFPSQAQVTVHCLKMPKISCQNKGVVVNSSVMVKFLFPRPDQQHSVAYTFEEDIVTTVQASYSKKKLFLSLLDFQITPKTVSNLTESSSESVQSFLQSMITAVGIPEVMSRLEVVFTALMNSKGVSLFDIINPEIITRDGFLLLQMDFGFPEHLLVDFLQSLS", "assay": "Test for inhibition of cholesteryl ester transfer (in vitro)", "format": "biochemical", "conditions": "human plasma as CETP source, LDL from healthy persons as acceptor, rHDL-agarose donor, 37° C.", "description": "Test for Inhibition of Cholesteryl Ester Transfer (In Vitro)\n1. Construction of Cholesteryl Ester Donor\nTo construct a cholesteryl ester donor to be used in the test, radiolabeled recombinant HDL containing […] (GE healthcare, TRK886, 3.5 μCi/mg of apoA-1) and apoA-1 was synthesized. Then, rHDL-agarose having the recombinant HDL immobilized thereon by CNBr-activated Sepharose 4B (Amersham Biosciences, Sweden) resin was used in the test.\n2. Cholesteryl Ester Transfer Test\nAs a protein source for cholesteryl ester transfer, plasma from healthy persons was used, and as a cholesteryl ester receptor, LDL from healthy persons was used. Samples were treated with each test compound to final concentrations of 16, 80, 400, 2000 and 10000 nM and analyzed in duplicate. For the cholesteryl ester transfer test, 20 μl of plasma, 50 μl of LDL (0.25 mg/ml) and 50 μl of rHDL-agarose (0.25 mg/ml) were added, and a solution containing a test compound was added, followed by reaction at 37° C. Then, centrifugation was performed at 4° C. for 3 minutes to stop the reaction, and 150 μl of the supernatant was taken and transferred to a 96-well plate for radioactivity measurement, and the radioactivity of the plate was measured with a beta-ray detector.\n3. Statistical Processing\nThe ratio of [^3H]-cholesteryl oleate from HDL to LDL was calculated and used as a result value, and from the result value, IC50 value was calculated using GraphPad Prism 5.0."}
{"smiles": "COC(=O)c1ccc(-c2cnc(OC)c(C3=C(CN4C(=O)O[C@H](c5cc(C(F)(F)F)cc(C(F)(F)F)c5)[C@@H]4C)CC(C)(C)CC3)c2)c(C)c1", "note": "[Compound 555, methyl 4-(3-(2-(((4S,5R)-5-(3,5-bis(trifluoromethyl)phenyl)-4-methyl-2-oxooxazolidin-3-yl)methyl)-4,4-dimethylcyclohex-1-enyl)-2-methoxypyridin-5-yl)-3-methylbenzoate]", "values": [{"measurement": "IC50", "result": 28.4, "unit": "nM"}]}
{"smiles": "COc1ccc(-c2ccc(C(=O)O)cc2F)cc1C1=C(CN2C(=O)O[C@H](c3cc(C(F)(F)F)cc(C(F)(F)F)c3)[C@@H]2C)CC(C)(C)CC1", "note": "[Compound 561, 3′-(2-(((4S,5R)-5-(3,5-bis(trifluoromethyl)phenyl)-4-methyl-2-oxooxazolidin-3-yl)methyl)-4,4-dimethylcyclohex-1-enyl)-2-fluoro-4′-methoxybiphenyl-4-carboxylic acid]", "values": [{"measurement": "IC50", "result": 23.2, "unit": "nM"}]}
{"smiles": "COC(=O)c1cccc(-c2ccc(OC)c(C3=C(CN4C(=O)O[C@H](c5cc(C(F)(F)F)cc(C(F)(F)F)c5)[C@@H]4C)CC(C)(C)CC3)c2)c1", "note": "[Compound 567, methyl 3′-(2-(((4S,5R)-5-(3,5-bis(trifluoromethyl)phenyl)-4-methyl-2-oxooxazolidin-3-yl)methyl)-4,4-dimethylcyclohex-1-enyl)-4′-methoxybiphenyl-3-carboxylate]", "values": [{"measurement": "IC50", "result": 56.6, "unit": "nM"}]}
{"smiles": "COC(=O)c1ccc(-c2cc(C3=C(CN4C(=O)O[C@H](c5cc(C(F)(F)F)cc(C(F)(F)F)c5)[C@@H]4C)CC(C)(C)CC3)c(OC)cc2F)c(C)c1", "note": "[Compound 572, methyl 5′-(2-(((4S,5R)-5-(3,5-bis(trifluoromethyl)phenyl)-4-methyl-2-oxooxazolidin-3-yl)methyl)-4,4-dimethylcyclohex-1-enyl)-2′-fluoro-4′-methoxy-2-methylbiphenyl-4-carboxylate]", "values": [{"measurement": "IC50", "result": 15, "unit": "nM"}]}
{"smiles": "COc1cc(F)c(-c2ccc(C(=O)O)cc2)cc1C1=C(CN2C(=O)O[C@H](c3cc(C(F)(F)F)cc(C(F)(F)F)c3)[C@@H]2C)CC(C)(C)CC1", "note": "[Compound 575, 5′-(2-(((4S,5R)-5-(3,5-bis(trifluoromethyl)phenyl)-4-methyl-2-oxooxazolidin-3-yl)methyl)-4,4-dimethylcyclohex-1-enyl)-2′-fluoro-4′-methoxybiphenyl-4-carboxylic acid]", "values": [{"measurement": "IC50", "result": 14.6, "unit": "nM"}]}
{"smiles": "COc1ncc(-c2ccc(C(=O)O)cc2C(C)C)cc1C1=C(CN2C(=O)O[C@H](c3cc(C(F)(F)F)cc(C(F)(F)F)c3)[C@@H]2C)CC(C)(C)CC1", "note": "[Compound 578, 4-(3-(2-(((4S,5R)-5-(3,5-bis(trifluoromethyl)phenyl)-4-methyl-2-oxooxazolidin-3-yl)methyl)-4,4-dimethylcyclohex-1-enyl)-2-methoxypyridin-5-yl)-3-isopropylbenzoic acid]", "values": [{"measurement": "IC50", "result": 12.6, "unit": "nM"}]}
{"smiles": "COc1ccc(-c2ccc(C(=O)O)c(F)c2F)cc1C1=C(CN2C(=O)O[C@H](c3cc(C(F)(F)F)cc(C(F)(F)F)c3)[C@@H]2C)CC(C)(C)CC1", "note": "[Compound 592, 3′-(2-(((4S,5R)-5-(3,5-bis(trifluoromethyl)phenyl)-4-methyl-2-oxooxazolidin-3-yl)methyl)-4,4-dimethylcyclohex-1-enyl)-2,3-difluoro-4′-methoxybiphenyl-4-carboxylic acid]", "values": [{"measurement": "IC50", "result": 8.4, "unit": "nM"}]}
{"smiles": "COc1ncc(-c2ccc(C(=O)O)c(F)c2F)cc1C1=C(CN2C(=O)O[C@H](c3cc(C(F)(F)F)cc(C(F)(F)F)c3)[C@@H]2C)CC(C)(C)CC1", "note": "[Compound 596, 4-(3-(2-(((4S,5R)-5-(3,5-bis(trifluoromethyl)phenyl)-4-methyl-2-oxooxazolidin-3-yl)methyl)-4,4-dimethylcyclohex-1-enyl)-2-methoxypyridin-5-yl)-2,3-difluorobenzoic acid]", "values": [{"measurement": "IC50", "result": 17.9, "unit": "nM"}]}
{"smiles": "COc1ccc(-c2ccc(C(=O)O)cc2OC)cc1C1=C(CN2C(=O)O[C@H](c3cc(C(F)(F)F)cc(C(F)(F)F)c3)[C@@H]2C)CC(C)(C)CC1", "note": "[Compound 597, 3′-(2-(((4S,5R)-5-(3,5-bis(trifluoromethyl)phenyl)-4-methyl-2-oxooxazolidin-3-yl)methyl)-4,4-dimethylcyclohex-1-enyl)-2,4′-dimethoxybiphenyl-4-carboxylic acid]", "values": [{"measurement": "IC50", "result": 50.2, "unit": "nM"}]}
{"smiles": "COc1cc(C(F)(F)F)c(-c2ccc(C(=O)O)cc2)cc1C1=C(CN2C(=O)O[C@H](c3cc(C(F)(F)F)cc(C(F)(F)F)c3)[C@@H]2C)CC(C)(C)CC1", "note": "[Compound 612, 5′-(2-(((4S,5R)-5-(3,5-bis(trifluoromethyl)phenyl)-4-methyl-2-oxooxazolidin-3-yl)methyl)-4,4-dimethylcyclohex-1-enyl)-4′-methoxy-2′-(trifluoromethyl)biphenyl-4-carboxylic acid]", "values": [{"measurement": "IC50", "result": 6.9, "unit": "nM"}]}
{"smiles": "COc1cc(C(F)(F)F)c(-c2ccc(C(=O)O)c(F)c2)cc1C1=C(CN2C(=O)O[C@H](c3cc(C(F)(F)F)cc(C(F)(F)F)c3)[C@@H]2C)CC(C)(C)CC1", "note": "[Compound 614, 5′-(2-(((4S,5R)-5-(3,5-bis(trifluoromethyl)phenyl)-4-methyl-2-oxooxazolidin-3-yl)methyl)-4,4-dimethylcyclohex-1-enyl)-3-fluoro-4′-methoxy-2′-(trifluoromethyl)biphenyl-4-carboxylic acid]", "values": [{"measurement": "IC50", "result": 27, "unit": "nM"}]}
{"smiles": "COc1cc(C(F)(F)F)c(-c2ccc(C(=O)O)cc2C)cc1C1=C(CN2C(=O)O[C@H](c3cc(C(F)(F)F)cc(C(F)(F)F)c3)[C@@H]2C)CC(C)(C)CC1", "note": "[Compound 616, 5′-(2-(((4S,5R)-5-(3,5-bis(trifluoromethyl)phenyl)-4-methyl-2-oxooxazolidin-3-yl)methyl)-4,4-dimethylcyclohex-1-enyl)-4′-methoxy-2-methyl-2′-(trifluoromethyl)biphenyl-4-carboxylic acid]", "values": [{"measurement": "IC50", "result": 7.6, "unit": "nM"}]}
{"smiles": "COc1cc(C)c(-c2ccc(C(=O)O)cc2)cc1C1=C(CN2C(=O)O[C@H](c3cc(C(F)(F)F)cc(C(F)(F)F)c3)[C@@H]2C)CC(C)(C)CC1", "note": "[Compound 620, 5′-(2-(((4S,5R)-5-(3,5-bis(trifluoromethyl)phenyl)-4-methyl-2-oxooxazolidin-3-yl)methyl)-4,4-dimethylcyclohex-1-enyl)-4′-methoxy-2′-methylbiphenyl-4-carboxylic acid]", "values": [{"measurement": "IC50", "result": 11.6, "unit": "nM"}]}
{"smiles": "Cc1cc(C(=O)O)ccc1-c1cccc(C2=C(CN3C(=O)O[C@H](c4cc(C(F)(F)F)cc(C(F)(F)F)c4)[C@@H]3C)CC(C)(C)CC2)c1", "note": "[Compound 651, 3′-(2-(((4S,5R)-5-(3,5-bis(trifluoromethyl)phenyl)-4-methyl-2-oxooxazolidin-3-yl)methyl)-4,4-dimethylcyclohex-1-enyl)-2-methylbiphenyl-4-carboxylic acid]", "values": [{"measurement": "IC50", "result": 10.7, "unit": "nM"}]}
{"smiles": "Cc1cc(C(=O)O)ccc1-c1cc(C2=C(CN3C(=O)O[C@H](c4cc(C(F)(F)F)cc(C(F)(F)F)c4)[C@@H]3C)CC(C)(C)CC2)ccc1C", "note": "[Compound 677, 5′-(2-(((4S,5R)-5-(3,5-bis(trifluoromethyl)phenyl)-4-methyl-2-oxooxazolidin-3-yl)methyl)-4,4-dimethylcyclohex-1-enyl)-2,2′-dimethylbiphenyl-4-carboxylic acid]", "values": [{"measurement": "IC50", "result": 15.9, "unit": "nM"}]}
{"smiles": "COc1cc(C)c(-c2ccc(C(=O)O)cc2C)cc1C1=C(CN2C(=O)O[C@H](c3cc(C(F)(F)F)cc(C(F)(F)F)c3)[C@@H]2C)CC(C)(C)CC1", "note": "[Compound 684, 5′-(2-(((4S,5R)-5-(3,5-bis(trifluoromethyl)phenyl)-4-methyl-2-oxooxazolidin-3-yl)methyl)-4,4-dimethylcyclohex-1-enyl)-4′-methoxy-2,2′-dimethylbiphenyl-4-carboxylic acid]", "values": [{"measurement": "IC50", "result": 1.9, "unit": "nM"}]}
{"smiles": "COc1cc(C2=C(CN3C(=O)O[C@H](c4cc(C(F)(F)F)cc(C(F)(F)F)c4)[C@@H]3C)CC(C)(C)CC2)cc(-c2ccc(C(=O)O)cc2C)c1", "note": "[Compound 689, 3′-(2-(((4S,5R)-5-(3,5-bis(trifluoromethyl)phenyl)-4-methyl-2-oxooxazolidin-3-yl)methyl)-4,4-dimethylcyclohex-1-enyl)-5′-methoxy-2-methylbiphenyl-4-carboxylic acid]", "values": [{"measurement": "IC50", "result": 24.3, "unit": "nM"}]}
{"smiles": "C[C@H]1[C@@H](c2cc(C(F)(F)F)cc(C(F)(F)F)c2)OC(=O)N1CC1=C(c2ccc(F)c(-c3ccc(C(=O)O)cc3C(F)(F)F)c2)CCC(C)(C)C1", "note": "[Compound 723, 5′-(2-(((4S,5R)-5-(3,5-bis(trifluoromethyl)phenyl)-4-methyl-2-oxooxazolidin-3-yl)methyl)-4,4-dimethylcyclohex-1-enyl)-2′-fluoro-2-(trifluoromethyl)biphenyl-4-carboxylic acid]", "values": [{"measurement": "IC50", "result": 9.6, "unit": "nM"}]}
{"smiles": "Cc1cc(C(=O)O)ccc1-c1ccc(Cl)c(C2=C(CN3C(=O)O[C@H](c4cc(C(F)(F)F)cc(C(F)(F)F)c4)[C@@H]3C)CC(C)(C)CC2)c1", "note": "[Compound 727, 3′-(2-(((4S,5R)-5-(3,5-bis(trifluoromethyl)phenyl)-4-methyl-2-oxooxazolidin-3-yl)methyl)-4,4-dimethylcyclohex-1-enyl)-4′-chloro-2-methylbiphenyl-4-carboxylic acid]", "values": [{"measurement": "IC50", "result": 11.4, "unit": "nM"}]}
{"smiles": "C[C@H]1[C@@H](c2cc(C(F)(F)F)cc(C(F)(F)F)c2)OC(=O)N1CC1=C(c2cc(-c3ccc(C(=O)O)cc3C(F)(F)F)ccc2Cl)CCC(C)(C)C1", "note": "[Compound 729, 3′-(2-(((4S,5R)-5-(3,5-bis(trifluoromethyl)phenyl)-4-methyl-2-oxooxazolidin-3-yl)methyl)-4,4-dimethylcyclohex-1-enyl)-4′-chloro-2-(trifluoromethyl)biphenyl-4-carboxylic acid]", "values": [{"measurement": "IC50", "result": 7.5, "unit": "nM"}]}
